Results on five molecules are retold here after PubChem BioAssay (NCI).

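Cells were grown in 96-well plates and exposed to each compound for 48 hours at five concentrations; endpoints were interpolated linearly between bracketing concentrations, or set to the highest concentration if not reached. The concentration for full growth arrest is given as TGI.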

Among the test systems are SN12C renal; HT29 colon; SF-539 CNS; UACC-62 melanoma; CAKI-1 renal; EKVX NSCLC; OVCAR-8 ovarian; MOLT-4 leukemia; TK-10 renal; SK-MEL-28 melanoma; HOP-62 NSCLC; RPMI-8226 leukemia; A549 NSCLC; OVCAR-3 ovarian; HCT-116 colon; K-562 leukemia; SF-268 CNS; RXF 393 renal; ACHN renal; KM20L2 colon.
Holding throughout (assay): NCI anticancer screen, dose series, 48 h

On to `COc1cccc(CC2Cc3ccccc3CC(=O)N2)c1` (stereo unspecified), for which the TGI was greater than 100 µM in the assay with SN12C renal; greater than 100 µM in the assay on HT29 colon; greater than 100 µM in the assay on SF-539 CNS; greater than 100 µM in the assay on UACC-62 melanoma; 68.6 µM with CAKI-1 renal; greater than 100 µM with EKVX NSCLC. Besides, the TGI is greater than 100 µM in the assay with OVCAR-8 ovarian; greater than 100 µM in the assay with MOLT-4 leukemia; greater than 100 µM in the assay on TK-10 renal; greater than 100 µM with SK-MEL-28 melanoma; 72.5 µM in the assay on HOP-62 NSCLC; greater than 100 µM with RPMI-8226 leukemia. Also, the TGI in the assay with A549 NSCLC, in the assay on OVCAR-3 ovarian, in the assay on HCT-116 colon, in the assay with K-562 leukemia, with SF-268 CNS and in the assay with RXF 393 renal was greater than 100 µM in each case. In the assay on ACHN renal, the TGI is greater than 100 µM.
As for `c1ccc(-c2nnc(-c3nsc4ccccc34)o2)cc1`, the TGI in the assay with SN12C renal, in the assay on HT29 colon, with SF-539 CNS, in the assay with UACC-62 melanoma, in the assay on KM20L2 colon and with EKVX NSCLC was greater than 100 µM throughout. Besides, the TGI in the assay on OVCAR-8 ovarian, in the assay with MOLT-4 leukemia, in the assay on TK-10 renal, with SK-MEL-28 melanoma, with HOP-62 NSCLC and in the assay on RPMI-8226 leukemia was greater than 100 µM throughout. In addition, the TGI in the assay on A549 NSCLC, with OVCAR-3 ovarian, in the assay with HCT-116 colon, with K-562 leukemia, with SF-268 CNS and in the assay on RXF 393 renal was greater than 100 µM in each case.
`NC(CCOCCP(=O)(O)CCOCCC(N)C(=O)O)C(=O)O` (stereo unspecified): the TGI in the assay on SN12C renal, in the assay on HT29 colon, in the assay on SF-539 CNS, in the assay on UACC-62 melanoma, in the assay with CAKI-1 renal and with EKVX NSCLC was greater than 100 µM each time. Also, the TGI with OVCAR-8 ovarian, with MOLT-4 leukemia, with TK-10 renal, in the assay with SK-MEL-28 melanoma, in the assay with RPMI-8226 leukemia and in the assay with A549 NSCLC was greater than 100 µM each time. Besides, the TGI in the assay on OVCAR-3 ovarian, in the assay with HCT-116 colon, in the assay on K-562 leukemia, with SF-268 CNS, with RXF 393 renal and in the assay with ACHN renal was greater than 100 µM each time.
`CCOC(=O)C1=C(C)N(NC(N)=O)C2(O)CCCC(=O)C12C` (stereo unspecified): the TGI in the assay on SN12C renal, with HT29 colon, in the assay on SF-539 CNS, with UACC-62 melanoma, with CAKI-1 renal and with KM20L2 colon was greater than 100 µM in each case. Besides, the TGI in the assay on OVCAR-8 ovarian, with TK-10 renal, in the assay on SK-MEL-28 melanoma, in the assay on RPMI-8226 leukemia, with A549 NSCLC and with OVCAR-3 ovarian was greater than 100 µM throughout. Also, the TGI in the assay with RXF 393 renal and in the assay on ACHN renal was greater than 100 µM throughout.
With `O=C1OCc2cccc3c2-c2c1cccc2C(=O)OC3`, the TGI in the assay with HT29 colon, with SF-539 CNS, in the assay on UACC-62 melanoma, with CAKI-1 renal, in the assay with KM20L2 colon and in the assay with EKVX NSCLC was greater than 100 µM throughout. The TGI with OVCAR-8 ovarian, in the assay with MOLT-4 leukemia, in the assay on TK-10 renal, in the assay on SK-MEL-28 melanoma, with HOP-62 NSCLC and in the assay with RPMI-8226 leukemia was greater than 100 µM each time. The TGI in the assay on OVCAR-3 ovarian, in the assay with HCT-116 colon, in the assay with K-562 leukemia, in the assay with SF-268 CNS and in the assay on RXF 393 renal was greater than 100 µM each time.
